Data: patent US7282592B2, “Resorcinol derivatives” (Warner-Lambert Company, priority 2000, dated 2007)

Biological target: T1, human tyrosinase (Homo sapiens, UniProt P14679)
T1 construct: endogenous in cells; host or cells: SKMEL 188 human melanoma cell line (lysate)
T1 sequence (P14679 19-529): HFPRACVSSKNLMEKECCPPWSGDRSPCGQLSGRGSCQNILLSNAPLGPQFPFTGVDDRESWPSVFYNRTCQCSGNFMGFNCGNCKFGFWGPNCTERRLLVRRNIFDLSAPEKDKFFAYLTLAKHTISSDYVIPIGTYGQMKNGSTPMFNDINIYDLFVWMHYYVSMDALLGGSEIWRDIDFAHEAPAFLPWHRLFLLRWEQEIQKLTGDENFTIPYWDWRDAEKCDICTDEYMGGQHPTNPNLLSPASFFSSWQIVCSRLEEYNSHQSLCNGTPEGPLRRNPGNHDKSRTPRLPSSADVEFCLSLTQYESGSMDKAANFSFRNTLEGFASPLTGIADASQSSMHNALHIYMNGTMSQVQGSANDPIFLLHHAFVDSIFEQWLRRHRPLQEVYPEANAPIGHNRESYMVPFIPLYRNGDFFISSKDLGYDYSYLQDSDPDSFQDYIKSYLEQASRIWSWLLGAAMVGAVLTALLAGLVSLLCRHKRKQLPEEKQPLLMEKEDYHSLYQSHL
Assay: Tyrosinase (DOPA Oxidase) Assay Using Cell Lysate
Type: biochemical
Settings: SKMEL 188 human melanoma cell lysates, L-DOPA 100 μg/ml, incubated 8 hrs, read at 405 nm
Method: 1. Tyrosinase (DOPA Oxidase) Assay Using Cell Lysate
Human melanoma cell line, SKMEL 188 (licensed from Memorial Sloan-Kettering), is used in the cell lysate assay and the screen. In the assay, compounds and L-dihydroxyphenylalanine (L-DOPA) (100 μg/ml) are incubated with the cell lysates containing human tyrosinase for 8 hrs before the plates are read at 405 nm.

IC50: ~4 µM
SMILES: Cc1ccc(S(=O)(=O)N[C@H]2CC[C@H](c3ccc(O)cc3O)CC2)cc1 [Example 14, N-[trans-4-(2,4-Dihydroxyphenyl)cyclohexyl]-4-methylbenzenesulfonamide]
